Measurements as given in PubChem BioAssay AID1996.
≈ marks a conversion by molar mass, not a printed value.

Settings: buffer; pH 7.4; 200.0 µM

| Compound | solubility kinetic |
| --- | --- |
| COc1ccc(C=O)cc1OC(=O)N1CCOCC1 | > 39.8 µg/mL |
| Cc1cc(=O)[nH]c(SCc2cccc3ccccc23)n1 | 23.5 µg/mL (≈ 83.2 µM) |
| O=C(Nc1ccc(C(=O)c2ccccc2)cc1)c1ccccc1 | < 0.6 µg/mL |
| O=C(Nc1ccc(Cl)c(Cl)c1)Nc1ccccn1 | < 0.2 µg/mL |
| Cc1ccc(S(=O)(=O)Nc2ccc3c(c2)OCCO3)cc1 | 42.3 µg/mL (≈ 139 µM) |
| COc1cc(N2C(=O)CC3(CCCC3)CC2=O)cc(OC)c1OC | 47.2 µg/mL (≈ 142 µM) |
| COC(=O)c1sc(N2CCCCC2)c(C#N)c1N | 2.2 µg/mL (≈ 8.29 µM) |
| O=C(COC(=O)/C=C/c1ccccc1Cl)NC(=O)NC1CCCC1 | 8.2 µg/mL (≈ 23.4 µM) |
| CCOC(=O)Nc1ccc2c(c1)N(C(=O)CN(C)C)c1ccccc1CC2.Cl | 57.7 µg/mL |
| CCOc1cc([N+](=O)[O-])c2nc(N)sc2c1 | 4.3 µg/mL (≈ 18 µM) |
| CC(=O)c1ccc(Nc2ccc([N+](=O)[O-])c3nonc23)cc1 | 4.2 µg/mL (≈ 14.1 µM) |
| O=C(NC(=S)Nc1ccccc1Cl)C1CC1 | > 38.2 µg/mL |
| Cc1nc(SCC(=O)NC(=O)NC(C)C)nc(C)c1C | > 44.5 µg/mL |
| O=C(OCc1ccccc1)N1CCc2ccccc21 | 0.9 µg/mL (≈ 3.55 µM) |
| COCCSc1ccccc1C(=O)Nc1ccc(Br)cc1 | 43.1 µg/mL (≈ 118 µM) |
| COc1ccc(CN2CCNCC2)cc1.Cl | > 36.4 µg/mL |
| O=C(COC(=O)c1ccco1)NC1CCCc2ccccc21 (stereo not given) | > 44.9 µg/mL |
| CC(=O)c1c(O)c2ccccc2n(C(C)C)c1=O | 29.7 µg/mL (≈ 121 µM) |
| COc1cc(N)c(Cl)cc1C(=O)OCC(=O)N1c2ccccc2NC(=O)C1(C)C | 5.5 µg/mL (≈ 13.2 µM) |
| CCOC(=O)N1CCN(c2nc3c(C)cccn3c(=O)c2C=O)CC1 | > 51.7 µg/mL |

| Compound | solubility kinetic |
| --- | --- |
| COC(=O)Nc1ccc(S(=O)(=O)Nc2cnc3ccccc3n2)cc1 | > 53.8 µg/mL |
| CN(c1ccccc1)S(=O)(=O)c1ccc(NC(=O)C2CC2)cc1 | 2.3 µg/mL (≈ 6.96 µM) |
| c1coc(CSc2ncnc3c2oc2ccccc23)c1 | 0.9 µg/mL (≈ 3.19 µM) |
| CCCOc1ccc(CNC(=O)Cc2cccs2)cc1 | 19.9 µg/mL (≈ 68.8 µM) |
| CN(C)C(=O)CN1C(=O)NC2(CCCc3ccccc32)C1=O (stereo not given) | > 45.2 µg/mL |
| O=C(NC(=S)Nc1ccccc1OC(F)F)c1ccc2c(c1)OCO2 | 4.4 µg/mL (≈ 12 µM) |
| Cc1ccc(CN2CC(C(=O)Nc3ccncc3)CC2=O)cc1 (stereo not given) | > 46.4 µg/mL |
| CN=c1sc(C(=O)Nc2ccccc2)c(C)n1C | 35.3 µg/mL (≈ 135 µM) |
| Nc1cc(=O)[nH]c(SCC(=O)Nc2ccccc2-c2ccccc2)n1 | > 52.9 µg/mL |
| Cc1ccc(CNc2nc3ccccc3n2C)o1 | > 36.2 µg/mL |
| NC(=O)CSc1nnc(-c2ccco2)n1-c1ccccc1 | > 45.1 µg/mL |
| CC(=O)Nc1ccc(-c2cn3c(n2)SCC3)cc1 | 34.4 µg/mL (≈ 133 µM) |
| Cc1cccc(OCC(=O)NCCCNC(=O)c2ccco2)c1 | 46.8 µg/mL (≈ 148 µM) |
| CCC(CC)C(=O)N1CCN(Cc2nc3ccccc3c(=O)[nH]2)CC1 | > 51.4 µg/mL |
| COC(=O)C1=C(N)OC2=C(C(=O)CCC2)C1c1cccnc1 (stereo not given) | 42.7 µg/mL (≈ 142 µM) |
| Cc1cc(=O)n(CC(=O)Nc2cc(Cl)ccc2C)c(C(C)C)n1 | 40.4 µg/mL (≈ 121 µM) |
| CCCCCCCn1ccc(O)c(CC(=O)OC)c1=O | > 42.2 µg/mL |
| O=C(c1ccc(-c2ccccc2)cc1)N1CCN(c2ccccc2F)CC1 | 1.8 µg/mL (≈ 4.99 µM) |
| O=C(NC12CC3CC(CC(C3)C1)C2)N1CCN(C2CCCCC2)CC1 | 42.4 µg/mL (≈ 123 µM) |
| CN1C(=O)CSC1=Nc1cccc(Cl)c1 | 34.2 µg/mL (≈ 142 µM) |

| Compound | solubility kinetic |
| --- | --- |
| CC1CC(C)CN(S(=O)(=O)CC23CCC(CC2=O)C3(C)C)C1 (stereo not given) | 44.8 µg/mL (≈ 137 µM) |
| C(=C\c1ccc2ccccc2n1)/c1ccccc1 | 0.5 µg/mL (≈ 2.16 µM) |
| COC(=O)c1ccc(C(=O)OC)c(NC(=S)N2CCN(C)CC2)c1 | > 52.7 µg/mL |
| O=C(NCc1ccc(Cl)cc1)c1cc(=O)[nH]c2ccccc12 | 1.6 µg/mL (≈ 5.12 µM) |
| COc1cc(NC(=O)C[n+]2ccc(C(=O)c3ccccc3)cc2)cc(OC)c1.[Cl-] | > 61.9 µg/mL |
| O=C(O)CCCNC(=O)Cc1ccccc1 | > 33.2 µg/mL |
| O=[N+]([O-])c1ccc(CCn2ccnc2)cc1 | > 32.6 µg/mL |
| CCCOC(=O)C1=C(C)NC(=O)NC1c1ccc(Br)s1 (stereo not given) | 3.1 µg/mL (≈ 8.63 µM) |
| COC(=O)c1scc(C)c1NC(=O)c1ccccc1F | > 44 µg/mL |
| CC(C)[C@H](NC(=O)c1ccccc1F)C(=O)NCCc1ccccc1 | 26.4 µg/mL (≈ 77.1 µM) |
| O=c1[nH]c2ccccc2nc1CCc1ccccc1 | 1.4 µg/mL (≈ 5.59 µM) |
| Cn1c(CO)cnc1SCC(=O)c1ccc(F)cc1 | > 42 µg/mL |
| O=C(Nc1ccncc1)c1ccc(Cl)c([N+](=O)[O-])c1 | > 41.7 µg/mL |
| COn1c(-c2ccccc2)nc2ncccc21 | > 33.8 µg/mL |
| CN(C(=S)NC(=O)C12CC3CC(CC(C3)C1)C2)c1ccc(O)cc1 | 45.8 µg/mL (≈ 133 µM) |
| O=C(Nc1ccccc1F)N1CCCC1c1cccnc1 (stereo not given) | 40.9 µg/mL (≈ 143 µM) |
| COc1ccccc1-c1cc(C(=O)N2CCOCC2)no1 | > 43.2 µg/mL |
| CC12CN3CC(C)(CN(C1)C3c1ccccc1F)C2 (stereo not given) | 34.3 µg/mL (≈ 132 µM) |
| COc1cc(C(=O)NCc2ccc3c(c2)OCO3)c([N+](=O)[O-])cc1OC | 38.3 µg/mL (≈ 106 µM) |
| Cc1ccccc1N1CCN(Cc2ccc3c(c2)OCO3)CC1 | 21.5 µg/mL (≈ 69.3 µM) |
